Measurements taken from ChEMBL document CHEMBL4428091, “Design and optimization of (3-aryl-1H-indazol-6-yl)spiro[cyclopropane-1,3'-indolin]-2'-ones as potent PLK4 inhibitors with oral antitumor efficacy” (Bioorg Med Chem Lett, 2016).

What was measured:
[1] = AUC in rat at 1 mg/kg, iv; format: ADME, organism-based; conditions: in vivo
[2] = Half life in human microsomes; format: ADME, Microsome
[3] = AUC in rat at 5 mg/kg, po; format: ADME, organism-based; conditions: in vivo
[4] = Half life in mouse microsomes; format: ADME, Microsome
[5] = Clearance in rat at 1 mg/kg, iv; format: ADME, organism-based; conditions: in vivo
[6] = Oral bioavailability in rat at 5 mg/kg; format: ADME, organism-based; conditions: in vivo
[7] = biological target: CYP3A4 (Homo sapiens, UniProt P08684); assay: Inhibition of CYP3A4 (unknown origin) at 1 uM; format: ADME
[8] = biological target: CYP2C19 (Homo sapiens, UniProt P33261); assay: Inhibition of CYP2C19 (unknown origin) at 1 uM; format: ADME
[9] = Lipophilicity, log D of the compound at pH 7.4; format: physicochemical; conditions: buffer
[10] = biological target: CYP2C9 (Homo sapiens, UniProt P11712); assay: Inhibition of CYP2C9 (unknown origin) at 1 uM; format: ADME
[11] = Half life in rat at 1 mg/kg, iv; format: ADME, organism-based; conditions: in vivo
[12] = Cmax in mouse at 25 mg/kg, po; format: ADME, organism-based; design: dose 25 mg/kg, route oral; conditions: in vivo
[13] = system: MDA-MB-468; assay: Growth inhibition of human MDA-MB-468 cells; format: functional
[14] = biological target: T1, Receptor-type tyrosine-protein kinase FLT3 (Homo sapiens, UniProt P36888); assay: Inhibition of FLT3 (unknown origin)
T1 sequence (P36888 whole entry): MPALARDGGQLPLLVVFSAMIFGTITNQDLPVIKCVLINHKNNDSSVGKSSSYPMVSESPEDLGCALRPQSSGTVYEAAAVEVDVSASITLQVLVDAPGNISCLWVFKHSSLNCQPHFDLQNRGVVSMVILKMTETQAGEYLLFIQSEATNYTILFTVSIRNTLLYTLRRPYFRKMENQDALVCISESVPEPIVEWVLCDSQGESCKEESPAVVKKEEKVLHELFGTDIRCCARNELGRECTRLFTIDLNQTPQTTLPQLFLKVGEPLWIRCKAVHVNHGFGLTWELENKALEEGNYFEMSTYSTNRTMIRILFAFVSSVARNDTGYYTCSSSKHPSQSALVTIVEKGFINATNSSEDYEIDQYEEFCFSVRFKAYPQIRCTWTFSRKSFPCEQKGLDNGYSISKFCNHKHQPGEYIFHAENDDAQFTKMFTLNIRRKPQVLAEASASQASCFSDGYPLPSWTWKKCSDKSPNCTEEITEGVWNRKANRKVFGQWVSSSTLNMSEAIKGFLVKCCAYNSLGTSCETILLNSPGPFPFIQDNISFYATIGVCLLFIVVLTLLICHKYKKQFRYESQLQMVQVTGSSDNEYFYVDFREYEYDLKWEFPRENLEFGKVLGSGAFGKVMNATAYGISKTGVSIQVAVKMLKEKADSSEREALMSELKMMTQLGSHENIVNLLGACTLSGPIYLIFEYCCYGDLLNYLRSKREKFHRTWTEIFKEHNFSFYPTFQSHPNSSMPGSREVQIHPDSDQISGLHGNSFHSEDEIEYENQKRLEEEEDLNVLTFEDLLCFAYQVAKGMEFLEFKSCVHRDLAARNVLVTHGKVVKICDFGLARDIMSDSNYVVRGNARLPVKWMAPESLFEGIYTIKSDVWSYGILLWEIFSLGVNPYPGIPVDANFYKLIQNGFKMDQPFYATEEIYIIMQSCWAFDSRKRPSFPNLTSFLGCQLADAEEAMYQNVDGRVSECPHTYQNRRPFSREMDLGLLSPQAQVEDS

[15] = biological target: T2, Aurora kinase A (Homo sapiens, UniProt O14965); assay: Inhibition of AURKA (unknown origin)
T2 sequence (O14965 whole entry): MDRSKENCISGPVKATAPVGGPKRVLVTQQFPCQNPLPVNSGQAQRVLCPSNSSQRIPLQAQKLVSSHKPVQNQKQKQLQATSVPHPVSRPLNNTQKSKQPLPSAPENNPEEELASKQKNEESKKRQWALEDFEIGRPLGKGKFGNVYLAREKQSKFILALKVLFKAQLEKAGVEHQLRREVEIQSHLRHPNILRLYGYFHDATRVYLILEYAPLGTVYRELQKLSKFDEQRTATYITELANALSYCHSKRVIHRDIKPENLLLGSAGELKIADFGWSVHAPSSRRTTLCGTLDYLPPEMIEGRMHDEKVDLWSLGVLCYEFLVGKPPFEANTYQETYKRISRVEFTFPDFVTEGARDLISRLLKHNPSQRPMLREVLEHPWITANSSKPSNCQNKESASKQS

[16] = system: MCF7; assay: Growth inhibition of human MCF7; format: functional
[17] = biological target: T3, Serine/threonine-protein kinase PLK4 (Homo sapiens, UniProt O00444); assay: Inhibition of PLK4 (unknown origin)
T3 sequence (O00444 whole entry): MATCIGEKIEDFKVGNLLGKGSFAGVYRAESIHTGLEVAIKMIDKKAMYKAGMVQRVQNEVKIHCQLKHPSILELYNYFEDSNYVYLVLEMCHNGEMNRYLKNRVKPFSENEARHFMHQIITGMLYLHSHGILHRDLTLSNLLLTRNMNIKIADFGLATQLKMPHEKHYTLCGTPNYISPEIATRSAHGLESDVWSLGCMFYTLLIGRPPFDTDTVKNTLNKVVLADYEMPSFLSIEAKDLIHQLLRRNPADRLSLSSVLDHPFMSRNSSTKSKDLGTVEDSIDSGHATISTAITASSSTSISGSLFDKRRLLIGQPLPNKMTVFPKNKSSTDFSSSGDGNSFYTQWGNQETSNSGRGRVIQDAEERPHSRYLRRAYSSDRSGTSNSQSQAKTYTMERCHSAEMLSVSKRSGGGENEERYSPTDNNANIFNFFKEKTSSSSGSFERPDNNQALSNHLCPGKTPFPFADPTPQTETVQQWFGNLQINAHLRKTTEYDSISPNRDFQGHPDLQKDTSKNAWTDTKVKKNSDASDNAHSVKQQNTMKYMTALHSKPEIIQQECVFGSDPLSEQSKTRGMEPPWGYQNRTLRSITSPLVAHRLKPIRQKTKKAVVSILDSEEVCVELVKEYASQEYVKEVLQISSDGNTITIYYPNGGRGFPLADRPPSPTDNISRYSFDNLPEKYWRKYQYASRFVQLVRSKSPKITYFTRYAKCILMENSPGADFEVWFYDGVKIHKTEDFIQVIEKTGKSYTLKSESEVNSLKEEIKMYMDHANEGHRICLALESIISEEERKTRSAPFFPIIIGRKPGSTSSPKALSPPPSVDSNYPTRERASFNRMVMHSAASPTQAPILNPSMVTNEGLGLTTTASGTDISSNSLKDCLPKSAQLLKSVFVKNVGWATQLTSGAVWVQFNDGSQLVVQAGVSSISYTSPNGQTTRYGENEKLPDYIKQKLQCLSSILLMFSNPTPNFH

[18] = biological target: Vascular endothelial growth factor receptor 2 (Homo sapiens, UniProt P35968); assay: Inhibition of KDR (unknown origin)
[19] = system: HCC1954; assay: Growth inhibition of human HCC1954; format: functional
[20] = biological target: Aurora kinase B (Homo sapiens, UniProt Q96GD4); assay: Inhibition of AURKB (unknown origin)
[21] = AUC in mouse at 25 mg/kg, po; format: ADME, organism-based; conditions: in vivo

Vascular endothelial growth factor receptor 2, sequence (P35968 whole entry): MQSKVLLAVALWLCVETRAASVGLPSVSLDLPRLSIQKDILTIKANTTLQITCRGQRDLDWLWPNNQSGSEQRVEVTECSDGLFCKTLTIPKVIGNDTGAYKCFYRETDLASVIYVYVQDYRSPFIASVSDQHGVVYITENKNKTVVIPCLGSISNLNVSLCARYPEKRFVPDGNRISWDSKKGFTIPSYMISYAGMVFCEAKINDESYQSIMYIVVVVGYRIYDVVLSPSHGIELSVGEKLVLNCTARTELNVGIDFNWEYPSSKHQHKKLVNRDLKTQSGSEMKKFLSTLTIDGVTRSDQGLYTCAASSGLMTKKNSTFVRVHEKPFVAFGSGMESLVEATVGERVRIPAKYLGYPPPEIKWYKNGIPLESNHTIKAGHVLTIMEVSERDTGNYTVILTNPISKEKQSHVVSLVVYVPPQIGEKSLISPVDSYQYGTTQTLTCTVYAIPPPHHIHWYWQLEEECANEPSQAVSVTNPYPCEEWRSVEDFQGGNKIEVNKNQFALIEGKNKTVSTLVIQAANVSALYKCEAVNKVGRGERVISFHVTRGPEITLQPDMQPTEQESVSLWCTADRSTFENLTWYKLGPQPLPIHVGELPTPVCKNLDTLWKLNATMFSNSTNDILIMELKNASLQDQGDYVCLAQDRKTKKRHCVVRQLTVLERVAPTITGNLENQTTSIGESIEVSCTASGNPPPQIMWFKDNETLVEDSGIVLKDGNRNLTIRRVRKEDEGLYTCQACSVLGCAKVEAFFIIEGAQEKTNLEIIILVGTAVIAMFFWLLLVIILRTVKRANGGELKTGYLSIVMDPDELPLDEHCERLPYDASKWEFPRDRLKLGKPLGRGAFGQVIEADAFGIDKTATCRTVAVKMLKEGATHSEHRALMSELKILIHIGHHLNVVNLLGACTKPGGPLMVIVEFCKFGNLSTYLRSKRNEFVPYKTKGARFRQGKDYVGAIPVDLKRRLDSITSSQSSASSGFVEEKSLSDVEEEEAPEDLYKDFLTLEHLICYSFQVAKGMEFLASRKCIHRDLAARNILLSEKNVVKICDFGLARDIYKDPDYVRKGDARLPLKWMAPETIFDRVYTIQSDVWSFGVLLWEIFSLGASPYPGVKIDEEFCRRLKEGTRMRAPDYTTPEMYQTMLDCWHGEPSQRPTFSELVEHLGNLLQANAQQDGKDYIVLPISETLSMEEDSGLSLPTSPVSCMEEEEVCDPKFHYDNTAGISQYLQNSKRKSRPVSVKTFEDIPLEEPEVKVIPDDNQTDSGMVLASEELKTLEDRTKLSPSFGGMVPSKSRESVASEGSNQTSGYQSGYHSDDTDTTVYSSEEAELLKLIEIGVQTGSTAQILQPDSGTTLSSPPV
CYP2C9, sequence (P11712 whole entry): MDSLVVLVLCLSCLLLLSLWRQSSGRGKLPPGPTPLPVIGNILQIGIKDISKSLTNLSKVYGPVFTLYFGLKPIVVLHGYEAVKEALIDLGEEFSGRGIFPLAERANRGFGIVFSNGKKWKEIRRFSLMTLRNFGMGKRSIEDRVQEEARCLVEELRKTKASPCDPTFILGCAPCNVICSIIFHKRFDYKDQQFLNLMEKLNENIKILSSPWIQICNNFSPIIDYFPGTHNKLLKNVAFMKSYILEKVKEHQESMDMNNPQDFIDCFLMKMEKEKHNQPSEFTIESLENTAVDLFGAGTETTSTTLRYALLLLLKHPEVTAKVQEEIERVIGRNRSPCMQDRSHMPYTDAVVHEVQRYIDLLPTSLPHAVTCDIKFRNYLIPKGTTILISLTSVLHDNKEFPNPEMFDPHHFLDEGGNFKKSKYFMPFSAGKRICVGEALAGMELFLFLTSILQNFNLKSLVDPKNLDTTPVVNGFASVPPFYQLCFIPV
Aurora kinase B, sequence (Q96GD4 whole entry): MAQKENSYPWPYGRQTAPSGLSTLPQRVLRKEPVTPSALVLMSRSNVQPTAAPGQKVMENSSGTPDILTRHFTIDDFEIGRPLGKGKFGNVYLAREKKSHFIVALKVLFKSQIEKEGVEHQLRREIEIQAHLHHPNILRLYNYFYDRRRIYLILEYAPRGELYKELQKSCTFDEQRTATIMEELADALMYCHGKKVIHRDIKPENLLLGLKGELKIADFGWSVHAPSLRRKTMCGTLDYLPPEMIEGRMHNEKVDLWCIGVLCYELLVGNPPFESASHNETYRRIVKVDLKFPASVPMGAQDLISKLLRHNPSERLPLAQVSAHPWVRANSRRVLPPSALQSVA
CYP2C19, sequence (P33261 whole entry): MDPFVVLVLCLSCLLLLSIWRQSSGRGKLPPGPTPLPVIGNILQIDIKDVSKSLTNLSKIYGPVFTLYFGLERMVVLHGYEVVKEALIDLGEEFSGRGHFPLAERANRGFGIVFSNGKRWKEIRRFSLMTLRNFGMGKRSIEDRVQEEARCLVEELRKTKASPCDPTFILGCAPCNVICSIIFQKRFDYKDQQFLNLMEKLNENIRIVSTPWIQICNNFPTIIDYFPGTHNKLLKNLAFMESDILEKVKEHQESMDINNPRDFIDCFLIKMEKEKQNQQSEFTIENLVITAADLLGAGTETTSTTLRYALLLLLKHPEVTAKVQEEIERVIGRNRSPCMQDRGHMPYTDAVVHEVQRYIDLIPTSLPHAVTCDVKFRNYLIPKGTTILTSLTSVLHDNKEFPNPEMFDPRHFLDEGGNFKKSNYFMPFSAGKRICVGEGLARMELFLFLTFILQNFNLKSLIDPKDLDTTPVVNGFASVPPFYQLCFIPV
CYP3A4, sequence (P08684 whole entry): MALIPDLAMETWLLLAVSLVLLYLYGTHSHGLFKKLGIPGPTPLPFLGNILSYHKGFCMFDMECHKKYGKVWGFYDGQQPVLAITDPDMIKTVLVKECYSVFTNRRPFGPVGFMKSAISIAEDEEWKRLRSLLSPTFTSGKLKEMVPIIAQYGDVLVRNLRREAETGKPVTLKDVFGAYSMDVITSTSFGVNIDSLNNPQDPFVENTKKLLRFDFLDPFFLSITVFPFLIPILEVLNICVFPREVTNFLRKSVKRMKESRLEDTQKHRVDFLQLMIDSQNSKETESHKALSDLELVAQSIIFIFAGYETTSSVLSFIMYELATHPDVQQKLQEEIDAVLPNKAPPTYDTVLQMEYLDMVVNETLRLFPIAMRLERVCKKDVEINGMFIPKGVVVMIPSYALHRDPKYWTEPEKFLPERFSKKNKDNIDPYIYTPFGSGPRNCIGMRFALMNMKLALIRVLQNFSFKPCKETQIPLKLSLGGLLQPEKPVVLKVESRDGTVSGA

| SMILES | half-life [2] [min] | half-life [4] [min] | logD [9] | GI50 [13] [nM] | IC50 [14] [nM] | IC50 [17] [nM] | also measured |
| --- | --- | --- | --- | --- | --- | --- | --- |
| CN1CCN(c2ccc(/C=C/c3n[nH]c4cc(/C=C5/C(=O)Nc6ccccc65)ccc34)cn2)CC1 | 24 | 4 | 4.5 | – | – | – | AUC [1]: 170 ng·h/mL; AUC ([3]; BLD = below limit of detection): Bld; clearance [5]: 107 mL/min/kg; bioavailability [6]: < 1%; inhibition at 1 µM [7]: 55%; inhibition at 1 µM [8]: 83%; inhibition at 1 µM [10]: 67%; half-life [11]: 306 min; Cmax ([12]; BLD = below limit of detection): Bld |
| O=C1Nc2ccccc2/C1=C\c1ccc2cn[nH]c2c1 | – | – | – | 4600 | 49 | – | – |
| COc1ccc2c(c1)[C@]1(C[C@H]1c1ccc3c(/C=C/c4ccc(N5CCN(C)CC5)nc4)n[nH]c3c1)C(=O)N2 | 16 | 9 | 4.2 | – | – | – | AUC [1]: 330 ng·h/mL; AUC ([3]; read-out: AUC): 250 ng·h/mL; clearance [5]: 51.7 mL/min/kg; bioavailability [6]: 15%; inhibition at 1 µM [7]: 76%; inhibition at 1 µM [8]: 93%; inhibition at 1 µM [10]: 73%; half-life [11]: 144 min |
| COc1ccc2c(c1)C(=Cc1ccc3c(-c4ccc(N5CCN(C)CC5)nc4)n[nH]c3c1)C(=O)N2 | 13 | 4 | 3.5 | 1300 to 3700 | 28 | 2.4 | IC50 [15]: 700 nM; GI50 [16]: 5400 nM; AUC [1]: 94 ng·h/mL; AUC ([3]; read-out: AUC): 24 ng·h/mL; clearance [5]: 178 mL/min/kg; bioavailability [6]: 2%; inhibition at 1 µM [7]: 19%; inhibition at 1 µM [8]: 64%; IC50 [18]: 630 nM; GI50 [19]: 5900 nM; inhibition at 1 µM [10]: 60%; IC50 [20]: 35 nM; half-life [11]: 78 min |
| CN1CCN(c2ccc(-c3n[nH]c4cc(C=C5C(=O)Nc6ccccc65)ccc34)cn2)CC1 | – | – | – | 1300 | 17 | 13 | – |
| COc1ccc2c(c1)[C@]1(C[C@H]1c1ccc3c(-c4ccc(N5C[C@@H](C)N[C@@H](C)C5)cc4)n[nH]c3c1)C(=O)N2 | > 60 | 43 | 3.4 | 5.8 | 230 | 1.2 | IC50 [15]: > 1000 nM; GI50 [16]: 30 nM; AUC [21]: 170 ng·h/mL; inhibition at 1 µM [7]: -3%; inhibition at 1 µM [8]: 54%; IC50 [18]: > 5000 nM; GI50 [19]: 8800 nM; inhibition at 1 µM [10]: 44%; IC50 [20]: 13 nM; Cmax ([12]; read-out: Cmax): 110 ng/mL |
| O=C1Nc2ccccc2C1=Cc1ccc2c(-c3ccc[nH]3)n[nH]c2c1 | – | – | – | 7700 | 50 | 64 | – |
| O=C1Nc2ccccc2C1=Cc1ccc2c(-c3cc4ccccc4[nH]3)n[nH]c2c1 | – | – | – | – | – | 540 | – |
| O=C1Nc2ccccc2/C1=C\c1ccc2c(-c3nccs3)n[nH]c2c1 | – | – | – | – | 72 | 490 | – |
| COc1ccc2c(c1)[C@@]1(C[C@@H]1c1ccc3c(-c4ccc(N5CCN(C)CC5)nc4)n[nH]c3c1)C(=O)N2 | – | – | – | 3700 | 6500 | 30 | IC50 [15]: > 1000 nM; GI50 [16]: 5400 nM; IC50 [18]: > 50000 nM; GI50 [19]: 5900 nM; IC50 [20]: 2100 nM |
| COc1ccc2c(c1)[C@]1(C[C@H]1c1ccc3c(-c4ccc(N5CCN(CCO)CC5)cc4)n[nH]c3c1)C(=O)N2 | > 60 | 28 | 4 | 68 | 77 | 1.2 | IC50 [15]: > 1000 nM; GI50 [16]: 1700 nM; AUC [1]: 220 ng·h/mL; AUC ([3]; read-out: AUC): 130 ng·h/mL; AUC [21]: 270 ng·h/mL; clearance [5]: 76.7 mL/min/kg; bioavailability [6]: 11%; inhibition at 1 µM [7]: 11%; inhibition at 1 µM [8]: 28%; GI50 [19]: 3000 nM; inhibition at 1 µM [10]: 41%; IC50 [20]: 7 nM; half-life [11]: 84 min; Cmax ([12]; read-out: Cmax): 250 ng/mL |
| CN1CCN(c2ccc(-c3n[nH]c4cc([C@@H]5C[C@@]56C(=O)Nc5ccc(F)cc56)ccc34)cn2)CC1 | – | – | – | 600 | 98 | – | – |
| COc1ccc2c(c1)[C@]1(C[C@H]1c1ccc3c(-c4ccc(N5CCNCC5)cc4)n[nH]c3c1)C(=O)N2 | 59 | > 60 | 2.6 | < 10 | 44 | 0.45 | IC50 [15]: > 1000 nM; GI50 [16]: < 10 nM; IC50 [18]: 5600 nM; GI50 [19]: 3600 nM; IC50 [20]: 6.9 nM; Cmax ([12]; BLD = below limit of detection): Bld |
| O=C1Nc2ccccc2C1=Cc1ccc2c(-c3ccncc3)n[nH]c2c1 | – | – | – | 9900 | 120 | 220 | – |
| O=C1Nc2ccccc2C1=Cc1ccc2c(-c3cccnc3)n[nH]c2c1 | – | – | – | 5000 | 27 | 29 | – |
| COc1ccc2c(c1)[C@]1(C[C@H]1c1ccc3c(-c4ccnc(N5CCN(C)CC5)c4)n[nH]c3c1)C(=O)N2 (racemic) | – | – | – | 380 | 320 | 2.1 | – |
| COc1ccc2c(c1)[C@]1(C[C@H]1c1ccc3c(-c4ccc(N5CCC(O)CC5)nc4)n[nH]c3c1)C(=O)N2 (racemic) | – | – | – | 890 | 240 | – | – |
| COc1ccc2c(c1)[C@]1(C[C@H]1c1ccc3c(-c4ccc(N5CCN(C)CC5)nc4)n[nH]c3c1)C(=O)N2 (racemic) | – | – | – | 120 | 260 | 1 | – |
| CN1CCN(c2ccc(-c3n[nH]c4cc([C@@H]5C[C@@]56C(=O)Nc5ccccc56)ccc34)cn2)CC1 (racemic) | – | – | – | 770 | 200 | 54 | – |
| COc1ccc2c(c1)[C@]1(C[C@H]1c1ccc3c(-c4ccc(N5CCOCC5)nc4)n[nH]c3c1)C(=O)N2 (racemic) | – | – | – | 670 | 1200 | – | – |
